Source: a compilation of properties of binary mixtures (doi:10.1016/j.jct.2016.12.008)

Assay: xn = mol fraction of the nth substance listed
Settings: 100 kPa

O + CC[n+]1ccn(C)c1.N#C[S-]
x1 = 1
Settings | viscosity [mPa·s]
288.15 K | 1.13
298.15 K | 0.89
308.15 K | 0.72
313.15 K | 0.65
318.15 K | 0.6

CC[n+]1ccn(C)c1.N#C[S-] + O
viscosity [mPa·s]
Settings | 288.15 K | 293.15 K | 298.15 K | 303.15 K | 308.15 K | 313.15 K | 318.15 K
x2 = 0 | 34.24 | 27.9 | 22.68 | 19.09 | – | 14.18 | –
x2 = 0.1006 | 27.45 | – | 18.74 | 16.03 | 13.87 | – | 10.71
x2 = 0.1948 | 21.99 | 18.63 | 15.93 | – | – | 10.58 | –
x2 = 0.3026 | 18.6 | 15.74 | 13.44 | 11.61 | 10.14 | 8.93 | 7.94
x2 = 0.4011 | 15.07 | 12.81 | 10.99 | – | 8.39 | 7.43 | 6.62
x2 = 0.4979 | 12.4 | 10.43 | 8.94 | 7.77 | 6.83 | 6.07 | 5.43
x2 = 0.6043 | 9.2 | 7.9 | 6.85 | 6.01 | – | 4.74 | 4.26
x2 = 0.6887 | 7.15 | 6.17 | 5.38 | – | – | 3.74 | 3.35
x2 = 0.7981 | 4.7 | – | – | – | – | – | –
x2 = 0.9105 | 2.53 | – | 2.02 | 1.79 | 1.6 | – | 1.31
x2 = 0.9443 | – | 1.76 | 1.57 | 1.39 | 1.25 | 1.13 | 1.03
x2 = 0.9506 | 1.86 | 1.67 | 1.49 | 1.32 | 1.19 | – | 0.98
